Test results: PMC7156458, “Synthetic biology based construction of biological activity-related library of fungal decalin-containing diterpenoid pyrones” (Nature Communications, 2020)

Target: Aβ42 (Homo sapiens, UniProt P05067)
Assay: Th-T (thioflavin-T) assay of Aβ42 aggregation
Type: biochemical
Conditions: for Th-T fluorescence, mean of three wells: compound at 50

Sequence of Aβ42 (P05067 672-713): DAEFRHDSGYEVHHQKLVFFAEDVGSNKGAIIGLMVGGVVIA

## C=C1CCC2C(C)(CCC=C(C)C)C(O)CCC2(C)C1Cc1c(OC)oc(CO)c(C)c1=O (stereo not drawn) [Compound 12]
Reading M54 of time course
  Th-T fluorescence, mean of three wells: 1.475
Reading M55 of time course
  Th-T fluorescence, mean of three wells: 1.456
Reading M56 of time course
  Th-T fluorescence, mean of three wells: 1.467
Reading M57 of time course
  Th-T fluorescence, mean of three wells: 1.475
Reading M58 of time course
  Th-T fluorescence, mean of three wells: 1.462
Reading M59 of time course
  Th-T fluorescence, mean of three wells: 1.454
Reading M60 of time course
  Th-T fluorescence, mean of three wells: 1.444
Reading M61 of time course
  Th-T fluorescence, mean of three wells: 1.462
Reading M62 of time course
  Th-T fluorescence, mean of three wells: 1.445
Concentration 10, unit not given, time-course reading M129
  Th-T fluorescence of Aβ42 with compound, mean of three wells (Fig. 7a source data): 2.41
Concentration 10, unit not given, time-course reading M130
  Th-T fluorescence of Aβ42 with compound, mean of three wells (Fig. 7a source data): 2.392
Concentration 10, unit not given, time-course reading M131
  Th-T fluorescence of Aβ42 with compound, mean of three wells (Fig. 7a source data): 2.376
Concentration 10, unit not given, time-course reading M132
  Th-T fluorescence of Aβ42 with compound, mean of three wells (Fig. 7a source data): 2.3677
Concentration 10, unit not given, time-course reading M133
  Th-T fluorescence of Aβ42 with compound, mean of three wells (Fig. 7a source data): 2.357
Concentration 10, unit not given, time-course reading M134
  Th-T fluorescence of Aβ42 with compound, mean of three wells (Fig. 7a source data): 2.346
Concentration 10, unit not given, time-course reading M135
  Th-T fluorescence of Aβ42 with compound, mean of three wells (Fig. 7a source data): 2.32
Concentration 10, unit not given, time-course reading M136
  Th-T fluorescence of Aβ42 with compound, mean of three wells (Fig. 7a source data): 2.323
Concentration 10, unit not given, time-course reading M137
  Th-T fluorescence of Aβ42 with compound, mean of three wells (Fig. 7a source data): 2.294
Concentration 10, unit not given, time-course reading M138
  Th-T fluorescence of Aβ42 with compound, mean of three wells (Fig. 7a source data): 2.29
Concentration 10, unit not given, time-course reading M139
  Th-T fluorescence of Aβ42 with compound, mean of three wells (Fig. 7a source data): 2.265
Concentration 10, unit not given, time-course reading M140
  Th-T fluorescence of Aβ42 with compound, mean of three wells (Fig. 7a source data): 2.265
Concentration 10, unit not given, time-course reading M141
  Th-T fluorescence of Aβ42 with compound, mean of three wells (Fig. 7a source data): 2.2429
Concentration 10, unit not given, time-course reading M142
  Th-T fluorescence of Aβ42 with compound, mean of three wells (Fig. 7a source data): 2.235
Concentration 10, unit not given, time-course reading M143
  Th-T fluorescence of Aβ42 with compound, mean of three wells (Fig. 7a source data): 2.219
Concentration 10, unit not given, time-course reading M144
  Th-T fluorescence of Aβ42 with compound, mean of three wells (Fig. 7a source data): 2.211
Concentration 10, unit not given, time-course reading M145
  Th-T fluorescence of Aβ42 with compound, mean of three wells (Fig. 7a source data): 2.191
Concentration 20, unit not given, time-course reading M129
  Th-T fluorescence of Aβ42 with compound, mean of three wells (Fig. 7a source data): 2.166
Concentration 20, unit not given, time-course reading M130
  Th-T fluorescence of Aβ42 with compound, mean of three wells (Fig. 7a source data): 2.19
Concentration 20, unit not given, time-course reading M131
  Th-T fluorescence of Aβ42 with compound, mean of three wells (Fig. 7a source data): 2.201
Concentration 20, unit not given, time-course reading M132
  Th-T fluorescence of Aβ42 with compound, mean of three wells (Fig. 7a source data): 2.206
Concentration 20, unit not given, time-course reading M133
  Th-T fluorescence of Aβ42 with compound, mean of three wells (Fig. 7a source data): 2.24
Concentration 20, unit not given, time-course reading M134
  Th-T fluorescence of Aβ42 with compound, mean of three wells (Fig. 7a source data): 2.215
Concentration 20, unit not given, time-course reading M135
  Th-T fluorescence of Aβ42 with compound, mean of three wells (Fig. 7a source data): 2.232
Concentration 20, unit not given, time-course reading M136
  Th-T fluorescence of Aβ42 with compound, mean of three wells (Fig. 7a source data): 2.218
Concentration 20, unit not given, time-course reading M137
  Th-T fluorescence of Aβ42 with compound, mean of three wells (Fig. 7a source data): 2.204
Concentration 20, unit not given, time-course reading M138
  Th-T fluorescence of Aβ42 with compound, mean of three wells (Fig. 7a source data): 2.229
Concentration 20, unit not given, time-course reading M139
  Th-T fluorescence of Aβ42 with compound, mean of three wells (Fig. 7a source data): 2.207
Concentration 20, unit not given, time-course reading M140
  Th-T fluorescence of Aβ42 with compound, mean of three wells (Fig. 7a source data): 2.233
Concentration 20, unit not given, time-course reading M141
  Th-T fluorescence of Aβ42 with compound, mean of three wells (Fig. 7a source data): 2.207
Concentration 20, unit not given, time-course reading M142
  Th-T fluorescence of Aβ42 with compound, mean of three wells (Fig. 7a source data): 2.239
Concentration 20, unit not given, time-course reading M143
  Th-T fluorescence of Aβ42 with compound, mean of three wells (Fig. 7a source data): 2.219
Concentration 20, unit not given, time-course reading M144
  Th-T fluorescence of Aβ42 with compound, mean of three wells (Fig. 7a source data): 2.234
Concentration 20, unit not given, time-course reading M145
  Th-T fluorescence of Aβ42 with compound, mean of three wells (Fig. 7a source data): 2.206
Concentration 50, unit not given, time-course reading M129
  Th-T fluorescence of Aβ42 with compound, mean of three wells (Fig. 7a source data): 1.589
Concentration 50, unit not given, time-course reading M130
  Th-T fluorescence of Aβ42 with compound, mean of three wells (Fig. 7a source data): 1.591
Concentration 50, unit not given, time-course reading M131
  Th-T fluorescence of Aβ42 with compound, mean of three wells (Fig. 7a source data): 1.579
Concentration 50, unit not given, time-course reading M132
  Th-T fluorescence of Aβ42 with compound, mean of three wells (Fig. 7a source data): 1.5892
Concentration 50, unit not given, time-course reading M133
  Th-T fluorescence of Aβ42 with compound, mean of three wells (Fig. 7a source data): 1.602
Concentration 50, unit not given, time-course reading M134
  Th-T fluorescence of Aβ42 with compound, mean of three wells (Fig. 7a source data): 1.607
Concentration 50, unit not given, time-course reading M135
  Th-T fluorescence of Aβ42 with compound, mean of three wells (Fig. 7a source data): 1.608
Concentration 50, unit not given, time-course reading M136
  Th-T fluorescence of Aβ42 with compound, mean of three wells (Fig. 7a source data): 1.609
Concentration 50, unit not given, time-course reading M137
  Th-T fluorescence of Aβ42 with compound, mean of three wells (Fig. 7a source data): 1.626
Concentration 50, unit not given, time-course reading M138
  Th-T fluorescence of Aβ42 with compound, mean of three wells (Fig. 7a source data): 1.633
Concentration 50, unit not given, time-course reading M139
  Th-T fluorescence of Aβ42 with compound, mean of three wells (Fig. 7a source data): 1.6439
Concentration 50, unit not given, time-course reading M140
  Th-T fluorescence of Aβ42 with compound, mean of three wells (Fig. 7a source data): 1.64
Concentration 50, unit not given, time-course reading M141
  Th-T fluorescence of Aβ42 with compound, mean of three wells (Fig. 7a source data): 1.647
Concentration 50, unit not given, time-course reading M142
  Th-T fluorescence of Aβ42 with compound, mean of three wells (Fig. 7a source data): 1.661
